Experimental data taken from article PMC5655044, “Reducing Antibacterial Development Risk for GSK1322322 by Exploring Potential Human Dose Regimens in Nonclinical Efficacy Studies Using Immunocompetent Rats” (Antimicrobial Agents and Chemotherapy, 2017).
Converted amounts (≈) assume the structure as drawn. “And” between values parts separate entries of the source, which are not always exact repeats. Identical values can stand only once. Like-named read-outs stand apart in the source and are kept apart here.

Experiments:
S. pneumoniae [1] = test: Rat model of S. pneumoniae pneumonia with recreated human exposure profiles; format: in vivo; settings: for Reduction in bacterial burden compared with controls at baseline: LVX- and AZM-resistant S. pneumoniae isolate, recreated human profiles (LVX 500 mg, AZM 1,000/500 mg once daily)
Procedure: (§1) The respiratory tract infection model was performed as previously described by Hoover et al. with slight modifications ([25]). Briefly, rats were anesthetized with a cocktail containing ketamine hydrochloride (Ketaset; 40 mg/kg) and xylazine (Rompun; 5 mg/kg) via intramuscular injection of 150 μl. The infection was induced by instilling 200 μl of the bacterial suspension in cooled, molten nutrient agar directly into the left lung via nonsurgical intratracheal intubation. As described in detail by Hoover et al., the use of agar for the inoculum boosts the ability of these organisms to establish infection in immunocompetent animals ([25]). The final inoculum ranged from 5.7 to 6.2 log10 CFU/rat for S. pneumoniae and 6.2 to 7.5 log10 CFU/rat for H. influenzae.
(§2) Solutions were freshly prepared each day.
(§3) One set of rats was euthanized at 1 h postinfection to establish the baseline bacterial burden at the time that dosing was initiated. All remaining animals were euthanized at 96 h postinfection. Euthanasia was achieved by carbon dioxide overdose, and infected tissues were excised aseptically and homogenized in 1 ml PBS using a laboratory blender (Stomacher 80; Seward Ltd., Worthing, West Sussex, UK). The lungs were removed whole and blotted to remove excess blood prior to processing. Abscesses were excised intact by removing all surrounding skin and tissue to ensure collection of the entire infected area along with the complete abscess itself. For enumeration of viable bacterial numbers, 10-fold serial dilutions were prepared in PBS and triplicate samples of 20 μl each were inoculated onto Trypticase soy agar supplemented with 5% sheep's blood (S. pneumoniae and S. aureus) or chocolate agar (H. influenzae) by a modified Miles-Misra technique ([27], [28]), using a Hamilton Microlab AT 2 Plus system. The colonies were counted following overnight incubation at 37°C, and the limit of detection was ≤1.7 log10 CFU/tissue.
(§4) The outcome measure for efficacy was the number of bacteria isolated from the infected tissues (number of log10 CFU per lungs or number of log10 CFU per abscess) at the conclusion of the study. Results are presented either as group means or as the change in the number of CFU from that at the baseline with associated standard errors of the means (SEM) for the difference. Statistical analysis was performed using the Student t test with a significance level of 0.05.

S. aureus [2] = test: Rat model of S. aureus abscess with recreated human exposure profiles; format: in vivo; settings: recreated AZM 1,000/500-mg profile, all three (macrolide-resistant) S. aureus isolates
Procedure: Rats were also anesthetized as described above for establishment of the abscess infection model. A subcutaneous groin abscess was created by injecting 1 ml of the bacterial suspension in semisolid nutrient agar subcutaneously into the loose skin of the right groin area. The final inoculum for the S. aureus strains utilized ranged from 6.4 to 7.2 log10 CFU/rat.
as §2
as §3, with “For enumeration of viable bacterial numbers, 10-fold serial dilutions were prepared in PBS and triplicate samples of 20 μl each were inoculated onto Trypticase soy agar supplemented with 5% sheep's blood (S. pneumoniae and S. aureus) or chocolate agar (H. influenzae) by a modified Miles-Misra technique ([27], [28]), using a Hamilton Microlab AT 2 Plus system.” left out, “CFU/tissue. […]” for “CFU/tissue.”

H. influenzae [3] = test: MIC by CLSI broth microdilution, H. influenzae isolates; format: cell-based, Haemophilus influenzae; parameters: key to Susceptibility category (superscript to MIC): R, resistant; S, susceptible; NS, nonsusceptible (resistance not defined); settings: for MIC: Haemophilus influenzae
Procedure: (§5) The strains chosen for these studies were clinical isolates from the GSK collection. They were selected on the basis of their desired susceptibility to GSK1322322, resistance phenotype, proven ability to produce robust infections in the rat infection models used in the present study, and previous validation in the models using positive- and negative-control antimicrobials (data on file). MICs were determined using the Clinical and Laboratory Standards Institute-recommended standards for broth microdilution ([24]) and are shown in Table 2. The MIC assay was repeated multiple times for each isolate, and results were consistent (within an accepted variation of ±1 dilution) across assays.

S. aureus [4] = test: MIC by CLSI broth microdilution, S. aureus isolates; format: cell-based, Staphylococcus aureus; parameters: key to Susceptibility category (superscript to MIC): R, resistant; S, susceptible; NS, nonsusceptible (resistance not defined); settings: for MIC: Staphylococcus aureus
Procedure: as §5

[5] = cited from earlier work; for AUC0–t Human / Cmax Human: estimated from published oral PK data; for AUC from 0 to 12 h postdosing: human
S. pneumoniae [6] = test: MIC by CLSI broth microdilution, S. pneumoniae isolates; format: cell-based, Streptococcus pneumoniae; parameters: key to Susceptibility category (superscript to MIC): R, resistant; S, susceptible; NS, nonsusceptible (resistance not defined); settings: for MIC: Streptococcus pneumoniae
Procedure: as §5

H. influenzae [7] = test: Rat model of H. influenzae pneumonia with recreated human exposure profiles; format: in vivo; settings: for Log10 reductions versus the levels at the baseline: 96 h
Procedure: as §1, §2, §3, §4

[8] = parameters: method as in PMID 24189245; settings: healthy volunteers; cited from earlier work
[9] = Blood versus plasma concentrations, human; format: in vitro ADME; settings: human (data on file)
[10] = Epithelial lining fluid penetration in infected rats; format: in vivo; settings: rat, epithelial lining fluid (total drug) / plasma (free drug); infected rats (data on file); read-out: Ratio of the total drug epithelial lining fluid AUC to the free drug plasma AUC
[11] = Blood versus plasma concentrations, rat; format: in vitro ADME; settings: rat (data on file)
[12] = susceptible S. pneumoniae strain, recreated human profiles, bacterial numbers reduced to below or close to the limit of detection

Row | SMILES | Reduction in bacterial burden compared with controls at baseline (S. pneumoniae [1]; 96 h) | Effect on bacterial burden (S. pneumoniae [1]; [12]) | Susceptibility category (superscript to MIC) (H. influenzae [3]; H. influenzae 511343) | Susceptibility category (superscript to MIC) (H. influenzae [3]; H. influenzae 1302002H) | Susceptibility category (superscript to MIC) (H. influenzae [3]; H. influenzae H128) | MIC (H. influenzae [3]; H. influenzae 511343) | MIC (H. influenzae [3]; H. influenzae 1302002H) | MIC (H. influenzae [3]; H. influenzae H128) | Susceptibility category (superscript to MIC) (S. aureus [4]; S. aureus A-24) | Susceptibility category (superscript to MIC) (S. aureus [4]; S. aureus PVL-2) | Susceptibility category (superscript to MIC) (S. aureus [4]; S. aureus X32601) | MIC (S. aureus [4]; S. aureus A-24) | MIC (S. aureus [4]; S. aureus PVL-2) | MIC (S. aureus [4]; S. aureus X32601) | Susceptibility category (superscript to MIC) (S. pneumoniae [6]; S. pneumoniae ERY2) | Susceptibility category (superscript to MIC) (S. pneumoniae [6]; S. pneumoniae L11259) | Susceptibility category (superscript to MIC) (S. pneumoniae [6]; S. pneumoniae TPS3) | MIC (S. pneumoniae [6]; S. pneumoniae ERY2) | MIC (S. pneumoniae [6]; S. pneumoniae L11259) | MIC (S. pneumoniae [6]; S. pneumoniae TPS3) | other results
1 | CC[C@H]1OC(=O)[C@H](C)[C@@H](O[C@H]2C[C@@](C)(OC)[C@@H](O)[C@H](C)O2)[C@H](C)[C@@H](O[C@@H]2O[C@H](C)C[C@H](N(C)C)[C@H]2O)[C@](C)(O)C[C@@H](C)CN(C)[C@H](C)[C@@H](O)[C@]1(C)O [AZM, azithromycin] | did not demonstrate any reduction in bacterial burden | highly effective | S | S | S | 4 µg/mL (≈ 5.34 µM) | 2 µg/mL (≈ 2.67 µM) | 0.5 µg/mL (≈ 0.668 µM) | R | R | R | > 64 µg/mL | > 64 µg/mL | > 64 µg/mL | R | S | R | 16 µg/mL (≈ 21.4 µM) | 0.03 µg/mL (≈ 0.0401 µM) | 4 µg/mL (≈ 5.34 µM) | Effect on bacterial burden (S. pneumoniae [1]; second AZM-resistant S. pneumoniae isolate, recreated AZM 1,000/500 mg profile, 96 h): no effect; Efficacy (S. aureus [2]): ineffective; AUC0–t Human ([5]; 1,000/500 mg oral steady-state profile, 24 h interval): 4.9 µg·h/mL; Cmax Human ([5]; 1,000/500 mg oral steady-state profile): 500 ng/mL; Log10 reductions versus the levels at the baseline (H. influenzae [7]; recreated AZM 1,000-mg loading then 500-mg profile once daily, two of three H. influenzae isolates): 1.2 log10 CFU/lungs and 1.4 log10 CFU/lungs; Efficacy (H. influenzae [7]; recreated AZM 1,000/500-mg profile, H. influenzae isolate with AZM MIC of 4 mg/liter): ineffective
2 | Cc1nc(NNC(=O)[C@H](CC2CCCC2)CN(O)C=O)c(F)c(N2CCN3CCOC[C@@H]3C2)n1 [GSK1322322] | – | – | – | – | – | 4 µg/mL (≈ 8.34 µM) | 4 µg/mL (≈ 8.34 µM) | 2 µg/mL (≈ 4.17 µM) | – | – | – | 4 µg/mL (≈ 8.34 µM) | 4 µg/mL (≈ 8.34 µM) | 1 µg/mL (≈ 2.09 µM) | – | – | – | 0.5 µg/mL (≈ 1.04 µM) | 2 µg/mL (≈ 4.17 µM) | 0.5 µg/mL (≈ 1.04 µM) | Ratio of the total drug epithelial lining fluid AUC to the free drug plasma AUC [8]: 3.5; Blood and plasma concentrations compared [9]: similar; Kp [10]: 3.3; Blood and plasma concentrations compared [11]: similar
3 | C[C@H]1COc2c(N3CCN(C)CC3)c(F)cc3c(=O)c(C(=O)O)cn1c23 [LVX, levofloxacin] | did not demonstrate any reduction in bacterial burden | highly effective | NS | S | S | 4 µg/mL (≈ 11.1 µM) | 0.06 µg/mL (≈ 0.166 µM) | 0.016 µg/mL (≈ 0.0443 µM) | – | S | R | – | 0.25 µg/mL (≈ 0.692 µM) | 32 µg/mL (≈ 88.6 µM) | S | S | R | 1 µg/mL (≈ 2.77 µM) | 1 µg/mL (≈ 2.77 µM) | 32 µg/mL (≈ 88.6 µM) | AUC0–t Human ([5]; 500 mg single oral dose, 24 h interval): 40 µg·h/mL; Cmax Human ([5]; 500 mg single oral dose): 4300 ng/mL; Log10 reductions versus the levels at the baseline (H. influenzae [7]; recreated 500-mg LVX profile once daily, two susceptible H. influenzae isolates): 4.2 log10 CFU/lungs and 4.5 log10 CFU/lungs; Efficacy (H. influenzae [7]; recreated 500-mg LVX profile, nonsusceptible H. influenzae strain): ineffective
4 | CC(=O)NC[C@H]1CN(c2ccc(N3CCOCC3)c(F)c2)C(=O)O1 [LZD, linezolid] | – | – | – | – | – | – | – | – | S | S | S | 4 µg/mL (≈ 11.9 µM) | 2 µg/mL (≈ 5.93 µM) | 1 µg/mL (≈ 2.96 µM) | – | – | – | – | – | – | AUC0–t Human ([5]; 625 mg oral steady state, 12 h interval): 147 µg·h/mL; AUC from 0 to 12 h postdosing ([5]; LZD 625 mg oral): 147 µg·h/mL; AUC from 0 to 12 h postdosing ([5]; LZD 600-mg approved oral dose): 138 µg·h/mL
5 | Cc1onc(-c2ccccc2)c1C(=O)N[C@@H]1C(=O)N2[C@@H]1SC(C)(C)[C@@H]2C(=O)O [Oxacillin] | – | – | – | – | – | – | – | – | – | R | R | – | 32 µg/mL (≈ 79.7 µM) | > 64 µg/mL | – | – | – | – | – | – | –
